# Patent US8022103B2, “Ester prodrugs of prostratin and related phorbol compounds” (Salvia Sciences, Inc., priority 2005, dated 2011)
# How the values were obtained:
# HCV RNA replicon = HCV RNA replicon luciferase assay; assay type: cell-based
# Experimental: Compounds SA-101A and SA-101B were evaluated for their effect on HCV RNA replicons using an in vitro HCV virus replication system.
# Compound preparation. Compounds were prepared as a powder (˜1 mg) and solubilized in DMSO. IFNα was used as a positive antiviral control.
# HCV RNA replicon system. The assay for HCV replication employed cell line ET (luc-ubi-neo/ET), which is a human Huh7 hepatoma cell line that contains an HCV RNA replicon with a stable luciferase (Luc) reporter and three cell culture-adaptive mutations (Pietschmann et al., 2002, J. Virol. 76:4008-4021). […]
# Luciferase assay. […] Compound IC50 and IC90 values (antiviral activity) are derived from plots of HCV RNA levels assessed as HCV RNA replicon-derived Luc activity versus drug concentration using Steady-Glo assay reagent (Promega), with Luc luminescence read on a 1450 Microbeta liquid scintillation and luminescence counter. Compound TC50 and TC90 values (cytotoxicity) are calculated from plots of cell number vs. drug concentration using data from the CytoTox-ONE cell proliferation assay (Promega); with fluorescence read using an Analyst HT fluorometer. […] Compound selectivity indices (SI=TC/IC) SI50 and SI90 values are calculated from spreadsheets.
# Human PBMCs = experiment: MTS staining for PBMC viability (cytotoxicity); assay type: cell-based; conditions: for Cytotoxicity: at the concentrations evaluated
# Experimental: PMBC assay. For the standard PBMC assay, PHA-P stimulated cells from at least two normal donors were pooled (mixed together), diluted in fresh medium to a final concentration of 1×10^6 cells/mL, and plated in the interior wells of a 96 well round bottom microplate at 50 μL/well (5×10^4 cells/well) in a standard format developed by the Infectious Disease Research department of Southern Research Institute. Pooling (mixing) of mononuclear cells from more than one donor is used to minimize the variability observed between individual donors, which results from quantitative and qualitative differences in HIV infection and overall response to the PHA and IL-2 of primary lymphocyte populations. Each plate contains virus/cell control wells (cells plus virus), experimental wells (drug plus cells plus virus) and compound control wells ([…], necessary for MTS monitoring of cytotoxicity). Since HIV-1 is not cytopathic to PBMCs, this allows the use of the same assay plate for both antiviral activity and cytotoxicity measurements. Test drug dilutions were prepared at a 2× concentration in microtiter tubes and 100 μL of each concentration was placed in appropriate wells using the standard format. 50 μL of a predetermined dilution of virus stock was placed in each test well (final MOI˜0.1). The PBMC cultures were maintained for seven days following infection at 37° C., 5% CO2. After this period, cell-free supernatant samples were collected for analysis of reverse transcriptase activity and/or HIV p24 content. Following removal of supernatant samples, compound cytotoxicity was measured by addition of MTS to the plates for determination of cell viability. Wells were also examined microscopically and any abnormalities were noted.
# MTS staining for PBMC viability to measure cytotoxicity. At assay termination, assay plates were stained with the soluble tetrazolium-based dye MTS (CellTiter 96 Reagent, Promega) to determine cell viability and quantify compound toxicity. The mitochondrial enzymes of metabolically active cells metabolize MTS to yield a soluble formazan product. This allows the rapid quantitative analysis of cell viability and compound cytotoxicity. […] At termination of the assay, 20 μL of MTS reagent was added per well. The microtiter plates were then incubated 4 6 hrs at 37° C. The incubation intervals were chosen based on empirically determined times for optimal dye reduction. Adhesive plate sealers were used in place of the lids, the sealed plate was inverted several times to mix the soluble formazan product and the plate was read spectrophotometrically at 490/650 ηm with a Molecular Devices Vmax or SpectraMaxPlus plate reader.
# Data analysis. Using an in-house computer program, IC50 (50%, inhibition of virus replication), IC90 (90%, inhibition of virus replication), IC95 (95%, inhibition of virus replication), TC50 (50% reduction in cell viability), TC90 (90% reduction in cell viability), TC95 (95% reduction in cell viability), and a therapeutic index (TI=TC50/IC50) were determined. AZT (nucleoside reverse transcriptase inhibitor) was used as a positive control antiviral compound.
SMILES,"EC50 (HCV RNA replicon) (HCV RNA replicon; ET cell line, luciferase, 72 hr)",Cytotoxicity (Human PBMCs; 40% human AB serum),"TC50 (Human PBMCs; HIV-1Ba-L assay plate, 40% Human AB serum)","TC50 (Human PBMCs; HIV-1IIIB assay plate, 40% Human AB serum)","TC50 (Human PBMCs; SIVMac251 assay plate, 40% Human AB serum)",Inhibition of HCV RNA replicon associated luciferase activity (HCV RNA replicon; lowest concentrations employed in the assay),TC50 (Human PBMCs; HIV-1Ba-L assay plate),TC50 (Human PBMCs; HIV-1IIIB assay plate),TC50 (Human PBMCs; SIVMac251 assay plate),Cytotoxicity (Human PBMCs)
"CC(=O)OC12CC(C)C3(O)C(C=C(COC(=O)CCC(=O)O)CC4(O)C(=O)C(C)=CC43)C1C2(C)C (stereo not shown) [SA-101B, Prostratin Succinate]",EC50 was not reached,no cytotoxicity,>1.00 µg/mL,>1.00 µg/mL,>1.00 µg/mL,–,–,–,–,–
"CC(=O)O[C@@]12C[C@@H](C)[C@@]3(O)[C@@H](C=C(CO)C[C@]4(O)C(=O)C(C)=C[C@@H]34)[C@@H]1C2(C)C [SA-101A, 12-deoxyphorbol 13-acetate]",–,–,–,–,–,greater than 50%,>1.00 µg/mL,>1.00 µg/mL,>1.00 µg/mL,no cytotoxicity
